The values below come from publication PMC5607094 (Biochemical pharmacology, 2017).

Test [1] has as its system human neutrophils. The test is described as follows: fMLF-induced neutrophil adhesion to T84 epithelial cells. The test is classed as cell-based. The following applies: read-out: Adhesion PMN (+ fMLF) IC50.
Test [2] concerns the target T1, FPR1 (Homo sapiens, UniProt P21462).
T1 sequence (P21462 1-350): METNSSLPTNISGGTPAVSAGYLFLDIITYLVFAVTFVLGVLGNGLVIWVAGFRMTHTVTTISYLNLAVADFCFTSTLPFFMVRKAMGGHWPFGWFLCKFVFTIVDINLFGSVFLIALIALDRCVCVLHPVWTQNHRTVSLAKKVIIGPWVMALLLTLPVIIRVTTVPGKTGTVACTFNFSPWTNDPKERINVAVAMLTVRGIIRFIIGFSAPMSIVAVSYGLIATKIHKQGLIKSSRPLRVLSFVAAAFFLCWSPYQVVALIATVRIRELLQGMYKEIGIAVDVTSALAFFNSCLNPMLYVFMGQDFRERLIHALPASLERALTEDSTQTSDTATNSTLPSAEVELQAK
The test is described as follows: fMLF-induced Ca2+ mobilization in FPR1-HL60 cells. The test is classed as cell-based. Conditions: for Activity class: Active / N.A. = no activity at highest concentration tested in Ca2+ flux assay (50 µM); for FPR1 antagonist activity: fMLF-induced Ca2+ mobilization in FPR1-HL60 cells.

Test [3] relates to human neutrophils. Put plainly: fMLF-induced neutrophil chemotaxis. Type of test: cell-based. The following applies: read-out: Chemotaxis PMN (+ fMLF) IC50.
In test [4] the target is T1, FPR1. The test is described as follows: fMLF-induced Ca2+ flux in human neutrophils. Type of test: cell-based.
Test [5] deals with ERK1/2. The test is described as follows: ERK1/2 phosphorylation in DMSO-differentiated neutrophil-like HL60 cells. Type of test: cell-based, human. The following applies: for Inhibition of fMLF-induced phosphorylation of ERK1/2: DMSO-differentiated HL60 cells, 10 min pretreatment, 20 nM fMLF 5 min; for Inhibition of fMLF-induced ERK phosphorylation: cell type not stated in the sentence (Discussion).

Test [6] deals with ERK1/2. The test is described as follows: ERK1/2 phosphorylation in FPR1-RBL cells. The test is classed as cell-based, rat. Conditions: FPR1-RBL cells (Figure 5B; text prints FPR1-HL60), 20 nM fMLF.
For test [7], the system named is ERK1/2. Put plainly: ERK1/2 phosphorylation in human neutrophils. Conditions: 10 min pretreatment, 10 nM fMLF. The test is classed as cell-based.
The target in test [8] is T2, FPR2 (Homo sapiens, UniProt P25090).
T2 sequence (P25090 1-351): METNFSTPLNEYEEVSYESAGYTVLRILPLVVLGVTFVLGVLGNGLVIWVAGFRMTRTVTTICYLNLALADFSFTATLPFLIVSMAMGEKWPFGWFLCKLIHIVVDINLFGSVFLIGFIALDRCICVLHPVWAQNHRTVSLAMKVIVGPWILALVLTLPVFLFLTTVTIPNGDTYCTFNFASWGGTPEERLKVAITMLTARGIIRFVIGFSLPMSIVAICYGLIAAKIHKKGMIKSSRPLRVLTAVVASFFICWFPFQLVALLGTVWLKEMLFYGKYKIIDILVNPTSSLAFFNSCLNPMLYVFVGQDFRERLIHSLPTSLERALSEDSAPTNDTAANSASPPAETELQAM
The test is described as follows: WKYMVM-induced Ca2+ flux in human neutrophils.

For test [9], the target named is T2, FPR2. The test is described as follows: Ca2+ mobilization in FPR2-HL60 cells.

Consider `CCCN1C(=O)C(O)=C(C(=O)c2ccccc2)C1c1cc(OC)ccc1OC` (centres unmarked) [Compound 4, 4-benzoyl-5-(2,5-dimethoxyphenyl)-3-hydroxy-1-propyl-2,5-dihydro-1H-pyrrol-2-one], for which the IC50 in test [1] is 2.9 ± 1.1 µM; in test [3] it was 6.3 ± 2.2 µM; in [4], 10.7 ± 2.5 µM. In addition, the Activity class entry in test [2] was “Active”.
Consider `CCCCN1C(=O)C(O)=C(C(=O)c2ccc(OC)cc2)C1c1ccc(C)cc1` (centres unmarked) [Compound 5, 1-butyl-3-hydroxy-4-(4-methoxybenzoyl)-5-(4-methylphenyl)-2,5-dihydro-1H-pyrrol-2-one], for which the half-inhibitory concentration (IC50) in test [1] is 25.8 ± 3.2 µM; in [3] it was 21.3 ± 7.6 µM; in [4], 26.7 ± 4.6 µM. In addition, in test [2], the Activity class entry is reported as “Active”.
With `COc1ccccc1C1C(C(=O)c2ccc(C)cc2)=C(O)C(=O)N1CC(C)O` (centres unmarked) [Compound 6, 3-hydroxy-1-(2-hydroxypropyl)-5-(2-methoxyphenyl)-4-(4-methylbenzoyl)-2,5-dihydro-1H-pyrrol-2-one], the results for the IC50 in test [3] and in [4] were 36.3 ± 4 µM and 12.4 ± 3.2 µM, respectively.
As to `CCCCCCN1C(=O)C(O)=C(C(=O)c2ccccc2)C1c1ccc(O)c(OC)c1` (centres unmarked) [Compound 14, 4-benzoyl-1-hexyl-3-hydroxy-5-(4-hydroxy-3-methoxyphenyl)-2,5-dihydro-1H-pyrrol-2-one], the 50% inhibitory concentration (IC50) in test [1] came to 1.6 ± 0.6 µM; in [3], 4.2 ± 1.3 µM; in test [4], 4.8 ± 0.5 µM. The Activity class result in [2] is given as “Active”. In addition, the “Inhibition of fMLF-induced phosphorylation of ERK1/2” value in test [5] and in test [7] was “effectively inhibited” each time. Moreover, the “Inhibition of fMLF-induced ERK phosphorylation” value in [5] is recorded as “inhibited”. Further, the “Inhibition of fMLF-induced ERK1/2 phosphorylation” value in test [6] is “inhibited”.
On to `CCCCCCN1C(=O)C(O)=C(C(=O)c2ccc(C)cc2)C1c1ccc(OC)cc1OC` (centres unmarked) [Compound 15, 5-(2,4-dimethoxyphenyl)-1-hexyl-3-hydroxy-4-(4-methylbenzoyl)-2,5-dihydro-1H-pyrrol-2-one], for which, in test [2], the Activity class entry was “Active”. Besides, in test [2], the “FPR1 antagonist activity” value is listed as “highly active FPR1 antagonists”. Besides, the “Inhibition of fMLF-induced ERK phosphorylation” value in [5] is listed as “inhibited”. For the same compound, the concentration for half-maximal inhibition (IC50) in [3] was 12.8 ± 4.8 µM; in test [8] it was 1.7 ± 0.1 µM; in test [9], 6.5 ± 0.9 µM; in test [4], 3.8 ± 1.8 µM.
On to `COCCN1C(=O)C(O)=C(C(=O)c2ccccc2)C1c1cc(OC)ccc1OC` (centres unmarked) [Compound 17, 4-benzoyl-5-(2,5-dimethoxyphenyl)-3-hydroxy-1-(2-methoxyethyl)-2,5-dihydro-1H-pyrrol-2-one], for which the 50% inhibitory concentration (IC50) in test [1] is 1.1 ± 0.2 µM; in [3], 2.2 ± 1.2 µM; in test [4], 6.7 ± 0.2 µM. Further, the Activity class entry in test [2] is reported as “Active”. Also, the “Inhibition of fMLF-induced phosphorylation of ERK1/2” value in [5] and in [7] was “effectively inhibited” throughout. Besides, the “Inhibition of fMLF-induced ERK phosphorylation” value in [5] is “inhibited”. Besides, the “Inhibition of fMLF-induced ERK1/2 phosphorylation” value in test [6] is on record as “inhibited”.
For `COCCN1C(=O)C(O)=C(C(=O)c2ccc(C)cc2)C1c1cc(OC)ccc1OC` (centres unmarked) [Compound 18, 5-(2,5-dimethoxyphenyl)-3-hydroxy-1-(2-methoxyethyl)-4-(4-methylbenzoyl)-2,5-dihydro-1H-pyrrol-2-one], the IC50 was 13.3 ± 2.7 µM in [1], 12.4 ± 4.2 µM in test [3] and 5.2 ± 1.4 µM in test [4]. Further, the Activity class entry in [2] was “Active”. The “FPR1 antagonist activity” value in test [2] was “highly active FPR1 antagonists”.
